Results: patent US7592424B2, “Ion channel-like polypeptide and use thereof” (Kyoto University, priority 2004, dated 2009)

Molecular target: Ciona intestinalis Ci-VSP cytoplasmic domain (phosphatase domain, residues 248-576 of Ci-VSP, SEQ ID NO: 2), wild type, GST fusion protein (GST-Ci-VSP) (Ciona intestinalis, UniProt Q4W8A1)
Assay: Malachite green assay of phosphoinositide phosphatase activity at various PIP3 concentrations, Michaelis-Menten fit
Type: biochemical
Conditions: substrate PIP3, initial rate V0 at t=0, Michaelis-Menten fit (FIG. 4c)
Description: To express N-terminal fused protein of the cytoplasmic domain of Ci-VSP with the GST gene, the cDNA encoding residues 248-576 of Ci-VSP was subcloned into the EcoRI-XhoI site of pGEX4T3 (Amersham Pharmacia). GST-fused protein was expressed and purified from E. coli JM109 with glutathione-sepharose CL-4B (Amersham Pharmacia). Phosphatase activity of Ci-VSP was measured with the methods previously adopted for PTEN phosphatase.
To see whether the Ci-VSP has phosphatase activity that uses PI(3, 4, 5)P3 as a substrate, a fusion protein of GST and the whole C-terminal cytoplasmic region of Ci-VSP was synthesized. FIG. 3b represents phosphoinositide phosphatase activity of the fusion protein of glutathione s-transferase and the phosphatase-like domain of Ci-VSP by a malachite green assay using PI(3, 4, 5)P3 as a substrate. […] BIOMOL GREEN™ reagent (Biomol, Plymouth Meeting, Pa.) was added to the sample and […] was measured by using H2O as a reference. […]
Enzyme activity of Ci-VSP was examined with thin layer chromatography (TLC). […] Where there is enzyme activity using PI(3, 4, 5)P3 as a substrate, the degraded product PIP2(NBD6-diC6-PI(4, 5)P2) is detected. […]
Malachite green imparts pale yellow in the absence of inorganic phosphate. […] Thus, by measuring absorbance of malachite green at 620 nm, the inorganic phosphate that is generated by the degradation of PI(3, 4, 5)P3 to PI(4, 5)P2 can be quantified. […]

Chain of Ciona intestinalis Ci-VSP cytoplasmic domain (phosphatase domain, residues 248-576 of Ci-VSP, SEQ ID NO: 2), wild type, GST fusion protein (GST-Ci-VSP) (Q4W8A1 entry or part of it): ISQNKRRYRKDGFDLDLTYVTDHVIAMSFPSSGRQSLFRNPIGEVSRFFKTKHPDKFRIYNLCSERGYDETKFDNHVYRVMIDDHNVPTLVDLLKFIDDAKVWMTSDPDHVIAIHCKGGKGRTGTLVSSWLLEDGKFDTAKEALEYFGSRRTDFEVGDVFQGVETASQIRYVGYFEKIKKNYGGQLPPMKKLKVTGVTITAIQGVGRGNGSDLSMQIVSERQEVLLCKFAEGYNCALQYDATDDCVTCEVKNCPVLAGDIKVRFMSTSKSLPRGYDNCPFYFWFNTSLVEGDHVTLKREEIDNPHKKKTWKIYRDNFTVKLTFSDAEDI

With PIP3 the “Vmax (maximum rate)” value was 0.292 nmol/min/µg and the Km (read-out: Km (substrate concentration required for 1/2 Vmax)) was 36 µM.
